“Also recorded” adds a separate entry of the source. Where two headings read alike, the source gives them in different places.
Assays:
platelet aggregation = test: In vitro anti-platelet aggregation activity evaluation (PAF-induced, platelet-rich plasma); format: cell-based, New Zealand white rabbits; conditions: for inhibitory effect on platelet aggregation in vitro (in words): 1 μM, compared with Ginkgolide B; for activity at 1 µM: Oryctolagus cuniculus, Platelet, read-out: Platelet aggregation rate (%, 1 μM)
Protocol: Experimental method: New Zealand white rabbits were anesthetized with sodium pentobarbital (2%, 2 mL/kg), about 40 mL of blood was obtained by abdominal aortic puncture, and the supernatant was collected as platelet-rich serum (PRP) after centrifugation at 1000 rpm/min for 10 min, the remaining blood was centrifuged at 4000 rpm/min for 10 min, and the supernatant was collected as platelet-poor serum (PPP); blank control group: 100 μL PRP+100 μL normal saline; drug group: 100 μL PRP+100 μL 0.05% DMSO dissolved drug (Ginkgolide B was positive control group), and the final drug concentration was 1 μM.

[1] = tested on: platelet aggregation in SD rats; test: Anticoagulant activity in SD rats (ADP-induced maximum platelet aggregation rate after gavage); format: in vivo; conditions: for Average maximum platelet aggregation rate (%): 50 mg/kg by gavage once a day for 3 days, ADP inducer, PAGM within 5 min; for anti-aggregation activity on platelet aggregation in SD rats (in words): 50 mg/kg, n=10, compared with Ginkgolide B
Protocol: Experimental method: Rats were randomly divided into 10 rats in each group, and each group was given the corresponding test drug (50 mg/kg) by gavage after weighing, once a day for 3 days.
150 μL of PRP in each group was sucked and added to the 96-well plate (adjusted to zero by PPP), and ADP inducer was added, the absorbance value A1 was measured at the wavelength of 650 nm in the microplate reader, which was the absorbance value of each group at 0 min; the oscillation mode of the microplate reader was turned on, and the absorbance value A2 was detected again after 5 min, which was the absorbance value of each group at 5 min. Since the addition of ADP would cause platelet aggregation and change the light permeability, the maximum platelet aggregation rate (PAGM) within 5 min was measured according to this principle. Maximum platelet aggregation rate(PAGM)=(A1−A2)/A1×100

[2] = tested on: acute cerebral ischemia in SD rats; test: Anti-acute cerebral ischemia activity (middle cerebral artery electrocoagulation, TTC staining); format: in vivo
Protocol: At this time, a relatively straight blood vessel with few branches can be seen through the dura mater, that is, the middle cerebral artery. […] The temporal muscle and skin were sutured in turn, and then the rat was administered by gavage (50 mg/kg). After the rats were awakened, they were put back into their cages and continued to be reared for 24 h.
The brain slices were stained in 1% TTC dye solution (incubated at 37° C. in the dark for about 5-10 min), the infarcted area of brain slices after staining was white, while the non-infarcted area was rose red; after staining was completed, the brain slices were moved to 10% formaldehyde solution and kept away from light for 24 hours, finally, a digital camera was used to take pictures, the areas of frontal and reverse infarcted areas and non-infarcted areas were measured by image analysis software (ImageJ, version: 1.4.3.67), and the ratio of infarcted areas in the total infarcted cerebral hemisphere was calculated.

[3] = 1 μM drug, PAF-induced, rabbit PRP, corrected to blank = 100, n=5
[4] = SD rats, 50 mg/kg by gavage after occlusion, 24 h, n=10
[5] = SD rats, 50 mg/kg, n=10, compared with model group / Ginkgolide B, 50 mg/kg
[6] = SD rats, 50 mg/kg by gavage after occlusion, 24 h, n=10, 50 mg/kg

Compound	Platelet aggregation rate (%, 1 μM) (platelet aggregation; [3]) [%]	inhibitory effect on platelet aggregation in vitro (in words) (platelet aggregation)	Average maximum platelet aggregation rate (%) ([1]; n=10)	further results
2-(Ginkgolide B-10-oxy) n-pentylamine Acetate [Embodiment 17]	21.90	significant activity	34.20	Average area ratio of hemicerebral infarction (%) [2, 4]: 25.31%
2-(Ginkgolide B-10-oxy) pyrrolidine Acetate [Embodiment 18]	26.45	–	–	–
2-(Ginkgolide B-10-oxy)ammonium Acetate [Embodiment 11]	56.53	–	–	–
2-(Ginkgolide B-10-oxy)arginine Acetate [Embodiment 13]	15.66	significant activity	21.25	anti-aggregation activity on platelet aggregation in SD rats (in words) [1]: particularly significant (P<0.001); Average area ratio of hemicerebral infarction (%) [2, 4]: 20.14%; activity for reducing the area ratio of hemicerebral infarction in SD rats (in words) [2, 5]: particularly significant (P<0.001)
2-(Ginkgolide B-10-oxy)diethylamine Acetate [Embodiment 16]	28.87	–	–	–
2-(Ginkgolide B-10-oxy)histidine Acetate [Embodiment 14]	19.74	significant activity	26.82	anti-aggregation activity on platelet aggregation in SD rats (in words) [1]: particularly significant (P<0.001); Average area ratio of hemicerebral infarction (%) [2, 4]: 17.98%; activity for reducing the area ratio of hemicerebral infarction in SD rats (in words) [2, 5]: particularly significant (P<0.001)
2-(Ginkgolide B-10-oxy)lysine Acetate [Embodiment 12]	12.23	significant activity	22.65	anti-aggregation activity on platelet aggregation in SD rats (in words) [1]: particularly significant (P<0.001); Average area ratio of hemicerebral infarction (%) ([2]; rat, in vivo, 50 mg/kg): 18.83%; activity for reducing the area ratio of hemicerebral infarction in SD rats (in words) ([2]; rat, in vivo, 50 mg/kg): particularly significant (P<0.001); also recorded: significantly better than Ginkgolide B and embodiment 10
2-(Ginkgolide B-10-oxy)morpholine Acetate [Embodiment 19]	35.77	–	–	–
2-(Ginkgolide B-10-oxy)triethylamine Acetate [Embodiment 15]	24.65	–	–	–
2-(Ginkgolide B-10-oxyethoxy)N-methyl-D-glucosamine Acetate [Embodiment 21]	18.64	significant activity	29.35	Average area ratio of hemicerebral infarction (%) [2, 4]: 22.66%
2-(Ginkgolide B-10-oxyethoxy)sodium Acetate [Embodiment 20]	45.32	–	–	–
COC(=O)CO[C@H]1C(=O)O[C@H]2O[C@]34C(=O)OC5C[C@@H](C(C)(C)C)C21[C@@]53[C@@H](O)[C@@H]1OC(=O)C(C)[C@@]14O (some centres unmarked) [Embodiment 1, 10-O-(methoxyformylmethyl) Ginkgolide B]	–	–	–	activity at 1 µM (platelet aggregation): 30%
COC(=O)/C=C/CO[C@H]1C(=O)O[C@H]2O[C@]34C(=O)OC5C[C@@H](C(C)(C)C)C21[C@@]53[C@@H](O)[C@@H]1OC(=O)C(C)[C@@]14O (some centres unmarked) [Embodiment 2, 10-O-(methoxyformylallyl) Ginkgolide B]	–	significant activity	32.60	activity at 1 µM (platelet aggregation): 10.3%; Average area ratio of hemicerebral infarction (%) [2, 4]: 21.56%
CC1C(=O)O[C@H]2[C@H](O)[C@@]34C5C[C@@H](C(C)(C)C)C36[C@@H](OC(=O)[C@@H]6OCC(=O)OC(C)(C)C)O[C@@]4(C(=O)O5)[C@@]12O (some centres unmarked) [Embodiment 3, 10-O-(tert-butoxyformylmethyl) Ginkgolide B]	–	–	–	activity at 1 µM (platelet aggregation): 26.1%
COC(=O)COCCO[C@H]1C(=O)O[C@H]2O[C@]34C(=O)OC5C[C@@H](C(C)(C)C)C21[C@@]53[C@@H](O)[C@@H]1OC(=O)C(C)[C@@]14O (some centres unmarked) [Embodiment 4, 10-O-(methoxyformylmethoxyethyl) Ginkgolide B]	–	–	–	activity at 1 µM (platelet aggregation; [3]): 46.7%
COC(=O)COCCOCCO[C@H]1C(=O)O[C@H]2O[C@]34C(=O)OC5C[C@@H](C(C)(C)C)C21[C@@]53[C@@H](O)[C@@H]1OC(=O)C(C)[C@@]14O (some centres unmarked) [Embodiment 5, 10-O-(methoxyformylmethoxyethoxyethyl) Ginkgolide B]	–	–	–	activity at 1 µM (platelet aggregation): 39.3%
CC1C(=O)O[C@H]2[C@H](O)[C@@]34C5C[C@@H](C(C)(C)C)C36[C@@H](OC(=O)[C@@H]6OC/C=C/C(=O)O)O[C@@]4(C(=O)O5)[C@@]12O (some centres unmarked) [Embodiment 6, 4-(Ginkgolide B-10-oxy)-2-butenoic Acid]	–	–	–	activity at 1 µM (platelet aggregation; [3]): 45.7%
CC1C(=O)O[C@H]2[C@H](O)[C@@]34C5C[C@@H](C(C)(C)C)C36[C@@H](OC(=O)[C@@H]6OCC(=O)O)O[C@@]4(C(=O)O5)[C@@]12O (some centres unmarked) [Embodiment 7, 2-(Ginkgolide B-10-oxy)acetic Acid]	17.66	significant activity	–	Average maximum platelet aggregation rate (%) ([1]; n=10, 50 mg/kg): 35.20%; Average area ratio of hemicerebral infarction (%) [2, 6]: 25.14%
CC1C(=O)O[C@H]2[C@H](O)[C@@]34C5C[C@@H](C(C)(C)C)C36[C@@H](OC(=O)[C@@H]6OCCOCC(=O)O)O[C@@]4(C(=O)O5)[C@@]12O (some centres unmarked) [Embodiment 8, 2-(Ginkgolide B-10-oxyethoxy)acetic Acid]	–	–	–	activity at 1 µM (platelet aggregation; [3]): 23.7%
CC1C(=O)O[C@H]2[C@H](O)[C@@]34C5C[C@@H](C(C)(C)C)C36[C@@H](OC(=O)[C@@H]6OCCOCCOCC(=O)O)O[C@@]4(C(=O)O5)[C@@]12O (some centres unmarked) [Embodiment 9, 2-(Ginkgolide B-10-oxyethoxyethoxy)acetic Acid]	–	–	–	activity at 1 µM (platelet aggregation; [3]): 35%
CC1C(=O)O[C@H]2[C@H](O)[C@@]34C5C[C@@H](C(C)(C)C)C36[C@@H](OC(=O)[C@@H]6OCC(=O)O)O[C@@]4(C(=O)O5)[C@@]12O (some centres unmarked) [Embodiment 10, 2-(Ginkgolide B-10-oxy)sodium Acetate]	39.34	–	–	Average maximum platelet aggregation rate (%) ([1]; n=10, 50 mg/kg): 42.20%; Average area ratio of hemicerebral infarction (%) [2, 6]: 29.61%
CC1C(=O)OC2C(O)C34C5CC(C(C)(C)C)C36C(OC(=O)C6O)OC4(C(=O)O5)C12O (centres unmarked) [Ginkgolide B]	63.42	–	39.57	Average area ratio of hemicerebral infarction (%) [2, 4]: 26.12%
